Data: US20260125440A1, “INCRETIN ANALOGS AND USES THEREOF” (ELI LILLY AND COMPANY, priority 2019, published 2026)
Values joined by “and” are separate entries in the source; they are usually repeats but may differ in a detail not shown here. Equal entries are not always repeated. Where two headings read alike, the source gives them in different places. Marks after values point to notes of the source that are not given here.

What was measured:
[1] = biological target: T1, hGCGR (Homo sapiens, UniProt P47871, DEL55-55); assay: Functional cAMP assay in HEK-293 cells expressing hGCGR; assay type: cell-based; conditions: percent of maximal response to GCG
T1 construct: expressed in transfected cells; host or cells: HEK-293 clonal cell line
T1 sequence (P47871 with tags, fused parts or gaps DEL55-55): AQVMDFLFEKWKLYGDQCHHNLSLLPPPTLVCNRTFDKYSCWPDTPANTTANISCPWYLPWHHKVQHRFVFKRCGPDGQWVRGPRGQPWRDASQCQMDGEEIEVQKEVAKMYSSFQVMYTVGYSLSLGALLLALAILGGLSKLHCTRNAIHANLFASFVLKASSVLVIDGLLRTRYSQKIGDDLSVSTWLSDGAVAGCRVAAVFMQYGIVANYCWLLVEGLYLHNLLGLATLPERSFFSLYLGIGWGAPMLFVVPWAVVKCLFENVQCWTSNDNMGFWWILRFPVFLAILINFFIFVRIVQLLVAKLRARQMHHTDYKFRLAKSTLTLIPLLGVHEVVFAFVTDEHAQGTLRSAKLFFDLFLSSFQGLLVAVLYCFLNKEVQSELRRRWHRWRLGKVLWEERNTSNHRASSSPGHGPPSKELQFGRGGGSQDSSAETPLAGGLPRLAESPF
Description: (§1) Experiments also are performed under identical assay conditions with the addition of 1.0% fatty acid free, globulin free human serum albumin (Sigma Cat #A3782).
(§2) After a 30-min incubation at 37° C., the resulting increase in intracellular cAMP is quantitatively determined using a CisBio cAMP Dynamic 2 HTRF Assay Kit (62AM4PEJ). Briefly, cAMP levels within the cell are detected by adding the cAMP-d2 conjugate in cell lysis buffer (10 μL) followed by the antibody anti-cAMP-Eu^3+-Cryptate, also in cell lysis buffer (10 μL). The resulting competitive assay is incubated for at least 60 min at room temperature, and then is detected using a PerkinElmer Envision® instrument with excitation at 320 nm and emission at 665 nm and 620 nm. Envision units (emission at 665 nm/620 nm*10,000) are inversely proportional to the amount of cAMP present and are converted to nM cAMP per well using a cAMP standard curve. […] A relative EC50 value and percent top (Emax) are derived by non-linear regression analysis using the percent maximal response vs. the concentration of peptide added, fitted to a four-parameter logistic equation.

[2] = biological target: T2, hGIPR (Homo sapiens, UniProt P48546); assay: Functional cAMP assay in HEK-293 cells expressing hGIPR; assay type: cell-based; conditions: percent of maximal response to GIP(1-42)NH2, read-out: hGIPR Emax
T2 construct: expressed in transfected cells; host or cells: HEK-293 clonal cell line
T2 sequence (P48546 22-466): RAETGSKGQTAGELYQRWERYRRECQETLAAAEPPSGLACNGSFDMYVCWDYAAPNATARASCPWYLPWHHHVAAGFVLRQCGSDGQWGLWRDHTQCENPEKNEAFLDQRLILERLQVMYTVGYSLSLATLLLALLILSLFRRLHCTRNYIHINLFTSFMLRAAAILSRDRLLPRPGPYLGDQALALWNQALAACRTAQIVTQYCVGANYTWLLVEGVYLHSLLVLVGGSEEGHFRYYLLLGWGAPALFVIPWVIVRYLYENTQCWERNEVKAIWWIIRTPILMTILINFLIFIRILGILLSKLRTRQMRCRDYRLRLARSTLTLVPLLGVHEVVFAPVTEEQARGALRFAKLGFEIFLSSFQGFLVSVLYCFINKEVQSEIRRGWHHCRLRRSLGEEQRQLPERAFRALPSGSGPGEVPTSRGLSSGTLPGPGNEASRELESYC
Description: as §1, §2

[3] = Pharmacokinetics in male diet-induced obese (DIO) mice; assay type: in vivo; conditions: mouse, subcutaneous, single 200 nmol/kg SQ dose, plasma
Description: Methods: Male DIO mice are administered a single SQ dose of 200 nmol/kg (0.98 mg/kg) of Example compounds in 40 mM Tris-HCL pH8 buffer with 0.02% PS80 at a volume of 10 mL/kg. […] Plasma concentration of Example compounds are determined by a qualified Liquid Chromatography Mass Spectrometry (LC/MS) method at Q Squared Solutions BioSciences LLC (Ithaca, NY). The Example compounds and an internal standard are extracted from 100% mouse plasma using protein precipitation followed by solid phase extraction. The intact mass of the Example compounds, which includes peptide plus acyl chain, are detected by a Q-Exactive™ Orbitrap® mass spectrometer.

[4] = biological target: T3, hGLP-1R (Homo sapiens, UniProt P43220); assay: Functional cAMP assay in HEK-293 cells expressing hGLP-1R; assay type: cell-based; conditions: percent of maximal response to GLP-1(7-36)NH2, read-out: hGLP-1R Emax
T3 construct: expressed in transfected cells; host or cells: HEK-293 clonal cell line
T3 sequence (P43220 24-463): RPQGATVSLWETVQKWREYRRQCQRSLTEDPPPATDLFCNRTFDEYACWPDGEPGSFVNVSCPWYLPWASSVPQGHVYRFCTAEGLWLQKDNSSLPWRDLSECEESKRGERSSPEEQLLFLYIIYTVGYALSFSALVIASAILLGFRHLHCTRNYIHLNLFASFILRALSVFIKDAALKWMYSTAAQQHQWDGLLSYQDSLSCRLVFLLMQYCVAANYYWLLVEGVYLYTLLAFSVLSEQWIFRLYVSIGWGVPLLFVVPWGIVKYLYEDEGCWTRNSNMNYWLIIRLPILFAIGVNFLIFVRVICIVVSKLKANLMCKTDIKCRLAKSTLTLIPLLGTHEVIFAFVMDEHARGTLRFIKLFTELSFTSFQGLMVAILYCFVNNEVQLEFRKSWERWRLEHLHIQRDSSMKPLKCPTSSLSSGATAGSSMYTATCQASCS
Description: as §1, §2

[5] = Weight loss, metabolism and body composition in DIO C57/B16 mice; assay type: in vivo
Description: Methods: To investigate the effects of the Example compounds on parameters such as weight loss, metabolism and body composition, the Example compounds are dosed to C57B16 DIO mice. These animals, although not diabetic, display insulin resistance and dyslipidemia, all characteristics of metabolic syndrome, after being placed on a high fat diet for 20 weeks.
Here, DIO male C57/B16 mice at 20 weeks old are maintained on a calorie-rich diet are used in the following studies. […] After a 3-week acclimation to the facility, which includes 1 week of vehicle acclimation dosing, the mice are randomized according to their body weight, so each experimental group of animals would have similar body weight.
All groups contain 6 mice. […] Body weight and food intake are measured daily throughout the study, including 1 day after last dose (Day 15).
Absolute changes in body weight are calculated by subtracting the body weight of the same animal prior to the first injection of molecule. On Days 0 and 15, total fat mass is measured by nuclear magnetic resonance (NMR) using an Echo Medical System (Houston, TX) instrument. On Day 15, metabolic parameters are measured using Accu-Chek® Aviva® Glucometers (Roche; Indianapolis, IN) or a Hitachi clinical blood analyzer (Roche, Indianapolis, IN). Plasma insulin is determined using an electrochemiluminescence assay (Meso Scale Discovery, Rockville, MD).
Data are presented as mean±t SEM of 6animals per group in Tables 7 and 8 below. Statistical analysis is performed using repeated measures ANOVA, followed by Dunneti's method for multiple comparisons. Significant differences are identified as * with p<0.05.

[6] = Insulin secretion during ivGTT in male Wistar rats; assay type: in vivo; conditions: Sema: semaglutide 10 nmol/kg positive control, one per run of each Example compound
Description: Methods: An intravenous glucose tolerance test (ivGTT) in Male Wistar rats is used to estimate insulinotropic potency of the Example compounds. A GLP-1R agonist, semaglutide, is used as a positive control. […] Semaglutide is used as positive control in connection with each run of Example compounds ([…] dose).
A time 0 blood sample is collected into EDTA tubes after which glucose is administered ([…], 5 mL/kg). Blood samples are collected for glucose and insulin levels at time 2, 4, 6, 10, 20 and 30 min post intravenous administration of glucose. Plasma insulin is determined using an electrochemiluminescence assay (Meso Scale; Rockville, MD).
Statistical analysis is performed using JMP with a one-way ANOVA followed by Dunnett's comparison to the vehicle control.

[7] = HEK293, 0.1% bovine casein and 1.0% human serum albumin
[8] = 10 nmol/kg SQ daily, day 15 difference vs vehicle, DIO mice

Compound: CC[C@H](C)[C@H](NC(=O)[C@H](Cc1ccccc1)NC(=O)C(C)(C)NC(=O)[C@](C)(CC(C)C)NC(=O)[C@H](CCC(N)=O)NC(=O)[C@H](C)NC(=O)[C@H](CCCCNC(=O)COCCOCCNC(=O)CC[C@H](NC(=O)CCCCCCCCCCCCCCCCCCC(=O)O)C(=O)O)NC(=O)[C@H](CCCN)NC(=O)[C@H](CC(=O)O)NC(=O)[C@H](CC(C)C)NC(=O)[C@](C)(CC(C)C)NC(=O)[C@@H](NC(=O)[C@H](CO)NC(=O)[C@H](Cc1ccncc1)NC(=O)[C@H](CC(=O)O)NC(=O)[C@H](CO)NC(=O)[C@@H](NC(=O)[C@](C)(Cc1ccccc1F)NC(=O)[C@@H](NC(=O)CNC(=O)[C@H](CCC(N)=O)NC(=O)C(C)(C)NC(=O)[C@@H](N)Cc1ccc(O)cc1)[C@@H](C)O)[C@@H](C)O)[C@@H](C)CC)C(=O)N[C@H](CCC(=O)O)C(=O)N[C@@](C)(Cc1ccc(O)cc1)C(=O)N[C@@H](CC(C)C)C(=O)N[C@@H](CC(C)C)C(=O)N[C@@H](CCC(=O)O)C(=O)NCC(=O)NCC(=O)N1CCC[C@H]1C(=O)N[C@@H](CO)C(=O)N[C@@H](CO)C(=O)NCC(=O)N[C@@H](CCC(=O)O)C(=O)N1CCC[C@H]1C(=O)N1CCC[C@H]1C(=O)N1CCC[C@H]1C(=O)N[C@@H](CO)C(N)=O [Example 3]
- Emax [1, 7]: 97 ± 9%
- Emax ([1]; HEK293, 0.1% bovine casein): 99 ± 4%
- Emax [2, 7]: 105 ± 5%
- Emax ([2]; HEK293, 0.1% bovine casein): 103 ± 2%
- AUC(0-inf) [3]: 32.8 µM·h
- CL/F [3]: 0.102 mL/min/kg
- Cmax [3]: 1070 nM
- Tmax [3]: 12 h
- half-life ([3]; read-out: t½ (converted)): 13 h
- Emax [4, 7]: 111 ± 5%
- Emax ([4]; HEK293, 0.1% bovine casein): 107 ± 2%

Compound: semaglutide
- Δ Body Weight (g) ([5]; 10 nmol/kg SQ daily 14 days, day 15, difference vs vehicle, DIO mice): −9.23 ± 0.58* g
- Δ Cholesterol [5, 8]: −73.33 ± 4.17* mg/dL
- Δ Glucose [5, 8]: -18.33 ± 2.81 mg/dL
- Δ Insulin [5, 8]: -4.15 ± 2.23 ng/mL
- Δ Trigs [5, 8]: 16.00 ± 0.38 mg/dL
- Fat Mass (%) ([5]; 10 nmol/kg SQ daily, difference in fat mass between days 0 and 15 (NMR), DIO mice): −15.14 ± 1.93* %
- Δ Body Weight (%) ([5]; 10 nmol/kg SQ daily, percent decrease between days 1 and 15, DIO mice): −21.98 ± 2.58* %
- AUC30 min of Insulin After Bolus IV Glucose [6]: 76.4 and 76.6 and 80.9
